ChEMBL document CHEMBL1212787, “Antimicrobial peptide hLF1-11 directs granulocyte-macrophage colony-stimulating factor-driven monocyte differentiation toward macrophages with enhanced recognition and clearance of pathogens” (2010)
Activity calls are given as the source filed them. No cut-off for these calls is given here.

Key:
[1] = test system: Macrophage; test: Modulation of GM-CSF-driven human macrophage differentiation assessed as induction of LPS-stimulated IL-10 production in at 1 to 100 ug/ml after 20 hrs; assay type: functional, cell-based
[2] = test system: Macrophage; test: Modulation of GM-CSF-driven human macrophage differentiation assessed as induction of LPS-stimulated IL-12p40 production in at 1 to 100 ug/ml after 20 hrs; assay type: functional, cell-based
[3] = test system: Macrophage; test: Modulation of GM-CSF-driven human macrophage differentiation assessed as induction of LPS-stimulated TNFalpha production in at 1 to 100 ug/ml after 20 hrs; assay type: functional, cell-based
[4] = test system: Macrophage; test: Modulation of GM-CSF-driven human macrophage differentiation assessed as induction of LTA-stimulated IL-10 production in at 1 to 100 ug/ml after 20 hrs; assay type: functional, cell-based
[5] = test system: Macrophage; test: Modulation of GM-CSF-driven human macrophage differentiation assessed as induction of LTA-stimulated IL-12p40 production in at 1 to 100 ug/ml after 20 hrs; assay type: functional, cell-based
[6] = test system: Macrophage; test: Modulation of GM-CSF-driven human macrophage differentiation assessed as induction of LTA-stimulated TNFalpha production in at 1 to 100 ug/ml after 20 hrs; assay type: functional, cell-based
[7] = test system: Macrophage; test: Modulation of GM-CSF-driven human macrophage differentiation assessed as induction of heat killed Candida albicans-stimulated IL-10 production in at 1 to 100 ug/ml after 20 hrs; assay type: functional, cell-based
[8] = test system: Macrophage; test: Modulation of GM-CSF-driven human macrophage differentiation assessed as induction of heat killed Candida albicans-stimulated IL-12p40 production in at 10 ug/ml after 20 hrs; assay type: functional, cell-based
[9] = test system: Macrophage; test: Modulation of GM-CSF-driven human macrophage differentiation assessed as induction of heat killed Candida albicans-stimulated TNFalpha production in at 1 to 100 ug/ml after 20 hrs; assay type: functional, cell-based
[10] = test system: Macrophage; test: Modulation of GM-CSF-driven human macrophage differentiation assessed as induction of 0.1 ng/ml LPS-stimulatedIL-10 production at 100 ug/ml after 20 hrs; assay type: functional, cell-based
[11] = test system: Macrophage; test: Modulation of GM-CSF-driven human macrophage differentiation assessed as induction of CD14 expression in at 100 ug/ml after 7 days by flow cytometry; assay type: functional, cell-based
[12] = Modulation of GM-CSF-driven human macrophage differentiation assessed as induction of TLR4 expression in at 100 ug/ml after 7 days by flow cytometry; assay type: functional, cell-based
[13] = test system: Macrophage; test: Modulation of GM-CSF-driven human macrophage differentiation assessed as induction of 10 ng/ml LTA-stimulatedMCP1 production at 100 ug/ml after 20 hrs; assay type: functional, cell-based
[14] = test system: Macrophage; test: Modulation of GM-CSF-driven human macrophage differentiation assessed as induction of 1 ng/ml LTA-stimulatedMCP1 production at 100 ug/ml after 20 hrs; assay type: functional, cell-based
[15] = Modulation of GM-CSF-driven human macrophage differentiation assessed as induction of TLR2 expression in at 100 ug/ml after 7 days by flow cytometry; assay type: functional, cell-based
[16] = test system: Macrophage; test: Modulation of GM-CSF-driven human macrophage differentiation assessed as induction of 1x10^6 CFU heat-killed Candida albicans cells-stimulated TNF-alpha production at 100 ug/ml after 20 hrs; assay type: functional, cell-based
[17] = Modulation of GM-CSF-driven human macrophage differentiation assessed as induction of dectin-1 expression at 100 ug/ml after 7 days by flow cytometry; assay type: functional, cell-based
[18] = test system: Macrophage; test: Modulation of GM-CSF-driven human macrophage differentiation assessed as induction of CD206 expression at 100 ug/ml after 7 days by flow cytometry; assay type: functional, cell-based
[19] = test system: Macrophage; test: Modulation of GM-CSF-driven human macrophage differentiation assessed as induction of CD11b expression at 100 ug/ml after 7 days by flow cytometry; assay type: functional, cell-based
[20] = test system: Candida albicans; test: Antimicrobial activity against Candida albicans infected in human macrophage assessed as fungus phagocytosing compound-treated macrophages at 15 mins by FACS analysis (reference value: 13%); assay type: functional
[21] = test system: Candida albicans; test: Antimicrobial activity against Candida albicans infected in human macrophage assessed as fungus phagocytosing compound-treated macrophages at 30 mins by FACS analysis (reference value: 28%); assay type: functional
[22] = test system: Staphylococcus aureus; test: Antimicrobial activity against Staphylococcus aureus LUH2141 infected in human macrophage assessed as bacteria phagocytosing macrophages at 60 mins by FACS analysis (reference value: 30%); assay type: functional
[23] = test system: Staphylococcus aureus; test: Antimicrobial activity against Staphylococcus aureus LUH2141 infected in human macrophage assessed as bacteria phagocytosing macrophages at 120 mins by FACS analysis (reference value: 66%); assay type: functional
[24] = test system: Candida albicans; test: Antimicrobial activity against Candida albicans infected in human macrophage assessed as fungal clearance at 60 mins by FACS analysis (reference value: 56%); assay type: functional, organism-based
[25] = test system: Staphylococcus aureus; test: Antimicrobial activity against Staphylococcus aureus LUH2141 infected in human macrophage at 60 mins by FACS analysis (reference value: 9%); assay type: functional, organism-based
[26] = test system: Staphylococcus aureus; test: Antimicrobial activity against Staphylococcus aureus LUH2141 infected in human macrophage at 120 mins by FACS analysis (reference value: 17%); assay type: functional, organism-based
[27] = test system: Monocyte; test: Modulation of GM-CSF-driven human monocytes differentiation assessed as induction of LPS-induced IL-10 production after 10 mins; assay type: functional, cell-based
[28] = test system: Monocyte; test: Modulation of GM-CSF-driven human monocytes differentiation assessed as induction of LPS-induced IL-10 production after 60 mins; assay type: functional, cell-based
[29] = test system: Monocyte; test: Modulation of GM-CSF-driven human monocytes differentiation assessed as induction of LPS-induced IL-10 production after 7 days; assay type: functional, cell-based
[30] = test system: Candida albicans; test: Antimicrobial activity against Candida albicans infected in human macrophage assessed as induction of phagocytosis of fungus after 10 mins by flow cytometry; assay type: functional, organism-based
[31] = test system: Candida albicans; test: Antimicrobial activity against Candida albicans infected in human macrophage assessed as induction of phagocytosis of fungus after 60 mins by flow cytometry; assay type: functional, organism-based
[32] = test system: Candida albicans; test: Antimicrobial activity against Candida albicans infected in human macrophage assessed as fungus phagocytosing compound-treated macrophages at 60 mins by FACS analysis (reference value: 47%); assay type: functional

H-GRRRRSVQWCA-OH
Activity [1]: Active | Activity [2]: inactive | Activity [3]: inactive | Activity [4]: Active | Activity [5]: Active | Activity [6]: inactive | Activity [7]: Active | Activity [8]: Active | Activity [9]: Active | Activity [10]: Active | Activity [11]: Active | Activity [12]: Active | Activity [13]: Active | Activity [14]: Active | Activity [15]: inactive | Activity [16]: Active | Activity [17]: Active | Activity [18]: Active | Activity [19]: inactive | Activity [20]: 22% | Activity [21]: 41% | Activity [22]: 49% | Activity [23]: 72% | Activity [24]: Active | Activity [25]: Active | Activity [26]: Active | Activity [27]: inactive | Activity [28]: Active | Activity [29]: Active | Activity [30]: inactive | Activity [31]: Active | Activity [32]: 54%
